Legend:
[1] = tested on: normal human neonatal foreskin epidermal keratinocytes (NHEK-F); experiment: Cell proliferation inhibition test; type: cell-based; settings: Keratinocyte, 72 h, NHEK-F cells, three days incubation, ATPlite or CellTiterGlo, read-out: IC50 (concentration of the compound at which the cell count is reduced by 50%)
Method in brief: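 NHEK-F keratinocytes, 2×10^3 per well in Humedia-EG2, plated overnight, then exposed to compound for three days. Cell count by ATPlite or CellTiterGlo luminescence; inhibition = 100 − (treated/untreated count)×100, IC50 as 50% reduction concentration.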

[2] = tested on: TNFα production in LPS-stimulated Raw264.7 cells; experiment: TNFα production inhibition test; type: cell-based; settings: Mus musculus, test compound 1 μmol/L, LPS 1 μg/mL, 16 hours, ELISA, read-out: Inhibition rate of TNFα production
Protocol: 7×10^4 mouse macrophage-derived cell line Raw264.7 cells were suspended in 100 μL of RPMI1640 medium containing 10% fetal bovine serum, plated in a 96-well plate and incubated overnight. The culture supernatant was removed and the test compound diluted in RPMI1640 medium containing 1% fetal bovine serum (final concentration: 1 μmol/L) was added. One hour after the addition, LPS (B4:0111) (Sigma-Aldrich, L2630) was added to a final concentration of 1 μg/mL. 16 hours after the stimulation, the culture supernatant was collected and the amount of TNFα produced in the culture supernatant was determined using ELISA kit (R&D Systems, MTA00B).
The inhibition rate was calculated from the following formula. Inhibition rate (%)=100−(amount of TNFα produced in the presence of test compound/amount of TNFα produced in the absence of test compound)×100

[3] = tested on: TPA-induced ear edema and acanthosis in Balb/c mice; experiment: Mouse TPA-induced ear-swelling model; type: in vivo; settings: topical, 240 h, 1% w/v solution, 20 μL applied to ear once a day from day 0 to day 9, female Balb/c mice, read-out: Inhibition rate of change in ear thickness on day 10
Method in brief: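 Female Balb/c mice, 7 weeks old; 20 ng/mL TPA in 5% DMSO/acetone applied to outer ear on days 0, 2, 4, 7, 9. Test compound at 1% w/v topically once daily days 0-9, vehicle control. Inhibition rate from day 10 minus day 0 ear-thickness change versus control.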

For `O=C(O)c1cc(C2CC2)ccc1Nc1ccc2c(ccn2Cc2ccccc2)c1` [Example 94, 2-((1-benzyl-1H-indol-5-yl)amino)-5-cyclopropylbenzoic acid], the IC50 [1] was ≤ 10 nM, the inhibition at 1 µM [2] was ≥ 50% and the inhibition in vivo at 1 % strength [3] was ≥ 20%.
`O=C(O)c1cc(C2CC2)cnc1Nc1ccc2c(c1)sc(=O)n2Cc1ccccc1` [Example 75, 2-((3-benzyl-2-oxo-2,3-dihydrobenzo[d]thiazol-6-yl)amino)-5-cyclopropylnicotinic acid] was tested, and the IC50 [1] was ≤ 10 nM, the inhibition at 1 µM [2] was ≥ 50% and the inhibition in vivo at 1 % strength [3] was ≥ 20%.
`O=C(O)c1cc(C2CC2)ccc1Nc1ccc2c(ccn2Cc2cccc(OCC(F)(F)F)c2)c1` [Example 35, 5-cyclopropyl-2-((1-(3-(2,2,2-trifluoroethoxyl)benzyl)-1H-indol-5-yl)amino)benzoic acid] was tested, and the IC50 [1] was ≤ 10 nM, the inhibition at 1 µM [2] was ≥ 50% and the inhibition in vivo at 1 % strength [3] was ≥ 20%.
In the case of `O=C(O)c1cc(C2CC2)ccc1Nc1ccc2c(c1)sc(=O)n2Cc1ccccc1` [Example 73, 2-((3-benzyl-2-oxo-2,3-dihydrobenzo[d]thiazol-6-yl)amino)-5-cyclopropylbenzoic acid], the IC50 [1] is reported as ≤ 10 nM and the inhibition at 1 µM [2] is reported as ≥ 50%.
For `COc1ccc(-n2ccc3cc(Nc4ccc(C5CC5)cc4C(=O)O)ccc32)cc1` [Example 373, 5-cyclopropyl-2-((1-(4-methoxyphenyl)-1H-indol-5-yl)amino)benzoic acid], the IC50 [1] was ≤ 10 nM and the inhibition at 1 µM [2] was ≥ 50%.
`O=C(O)c1cc(Cl)ccc1Nc1ccc2c(c1)sc(=O)n2Cc1ccccc1` [Example 67, 2-((3-benzyl-2-oxo-2,3-dihydrobenzo[d]thiazol-6-yl)amino)-5-chlorobenzoic acid] was tested, and the IC50 [1] was 10 to 100 nM and the inhibition at 1 µM [2] was ≥ 50%.
With `O=C(O)c1cc(Cl)cnc1Nc1ccc2c(ccn2Cc2ccccc2)c1` [Example 90, 2-((1-benzyl-1H-indol-5-yl)amino)-5-chloronicotinic acid] the IC50 [1] was 10 to 100 nM, the inhibition at 1 µM [2] was ≥ 50% and the inhibition in vivo at 1 % strength [3] was ≥ 20%.
With `O=C(O)c1cc(Cl)ccc1Nc1ccc2c(ccn2Cc2cccc(OCCO)c2)c1` [Example 300, 5-chloro-2-((1-(3-(2-hydroxyethoxy)benzyl)-1H-indol-5-yl)amino)benzoic acid] the IC50 [1] was 10 to 100 nM and the inhibition at 1 µM [2] was ≥ 50%.
For `O=C(O)c1cc(Cl)ccc1Nc1ccc2c(c1)ncc(=O)n2Cc1ccccc1` [Example 69, 2-((1-benzyl-2-oxo-1,2-dihydroquinoxalin-6-yl)amino)-5-chlorobenzoic acid], the IC50 [1] was 100 to 1000 nM and the inhibition at 1 µM [2] was ≥ 50%.
With `Cc1ccc(-n2ccc3cc(Nc4ccc(C5CC5)cc4C(=O)O)ccc32)nn1` [Example 102, 5-cyclopropyl-2-((1-(6-methylpyridazin-3-yl)-1H-indol-5-yl)amino)benzoic acid] the IC50 [1] was 10 to 100 nM and the inhibition at 1 µM [2] was ≥ 50%.
`O=C(O)c1cc(C2CC2)ccc1Nc1ccc2c(ccn2C(=O)c2ccccc2)c1` [Example 202, 2-((1-benzoyl-1H-indol-5-yl)amino)-5-cyclopropylbenzoic acid] was tested, and the IC50 [1] was ≤ 10 nM and the inhibition at 1 µM [2] was ≥ 50%.
In the case of `O=C(O)c1cc(Cl)ccc1Nc1ccc2c(ccn2Cc2cccc(OC(F)F)c2)c1` [Example 277, 5-chloro-2-((1-(3-(difluoromethoxy)benzyl)-1H-indol-5-yl)amino)benzoic acid], the IC50 [1] is reported as ≤ 10 nM and the inhibition at 1 µM [2] is reported as ≥ 50%.
With `O=C(O)c1cc(Cl)ccc1Nc1cnc2c(ccn2Cc2ccccc2)c1` [Example 11, 2-((1-benzyl-1H-pyrrolo(2,3-b)pyridin-5-yl)amino)-5-chlorobenzoic acid] the IC50 [1] was 10 to 100 nM and the inhibition at 1 µM [2] was ≥ 50%.
`Cn1c(=O)n(Cc2ccccc2)c2ccc(Nc3ccc(Cl)cc3C(=O)O)cc21` [Example 65, 2-((1-benzyl-3-methyl-2-oxo-2,3-dihydro-1H-benzo[d]imidazol-5-yl)amino)-5-chlorobenzoic acid] was tested, and the IC50 [1] was 100 to 1000 nM and the inhibition at 1 µM [2] was ≥ 50%.
`O=C(O)c1cc(Cl)cnc1Nc1ccc2c(ccn2Cc2cccc(OCC(F)(F)F)c2)c1` [Example 357, 5-chloro-2-((1-(3-(2,2,2-trifluoroethoxyl)benzyl)-1H-indol-5-yl)amino)nicotinic acid] was tested, and the IC50 [1] was 10 to 100 nM and the inhibition at 1 µM [2] was ≥ 50%.
For `O=C(O)c1cc(Cl)ccc1Nc1ccc2c(ccn2-c2ccccc2)c1` [Example 269, 5-chloro-2-((1-phenyl-1H-indol-5-yl)amino)benzoic acid], the IC50 [1] was ≤ 10 nM and the inhibition at 1 µM [2] was ≥ 50%.
`O=C(O)c1cc(Cl)ccc1Nc1ccc2c(ccn2Cc2cccc(O)c2)c1` [Example 17, 5-chloro-2-((1-(3-hydroxybenzyl)-1H-indol-5-yl)amino)benzoic acid] was tested, and the IC50 [1] was ≤ 10 nM and the inhibition at 1 µM [2] was ≥ 50%.
`O=C(O)c1cc(Cl)ccc1Nc1ccc2c(ccn2Cc2cccc(OC(F)(F)F)c2)c1` [Example 363, 5-chloro-2-((1-(3-(trifluoromethoxy)benzyl)-1H-indol-5-yl)amino)benzoic acid] was tested, and the IC50 [1] was ≤ 10 nM and the inhibition at 1 µM [2] was ≥ 50%.
With `CC(C)n1ccc2cc(Nc3ccc(C4CC4)cc3C(=O)O)ccc21` [Example 112, 5-cyclopropyl-2-((1-isopropyl-1H-indol-5-yl)amino)benzoic acid] the IC50 [1] was ≤ 10 nM and the inhibition at 1 µM [2] was ≥ 50%.
For `O=C(O)c1cc(C2CC2)ccc1Nc1ccc2c(ccn2CC2CC2)c1` [Example 104, 5-cyclopropyl-2-((1-(cyclopropylmethyl)-1H-indol-5-yl)amino)benzoic acid], the IC50 [1] was ≤ 10 nM and the inhibition at 1 µM [2] was ≥ 50%.
In the case of `O=C(O)c1cc(Cl)ccc1Nc1ccc2c(ccn2Cc2ccccc2)c1` [Example 2, 2-((1-benzyl-1H-indol-5-yl)amino)-5-chlorobenzoic acid], the IC50 [1] is reported as ≤ 10 nM and the inhibition at 1 µM [2] is reported as ≥ 50%.
With `CN(C)c1ccc(Cn2ccc3cc(Nc4ccc(C5CC5)cc4C(=O)O)ccc32)cc1` [Example 198, 5-cyclopropyl-2-((1-(4-(dimethylamino)benzyl)-1H-indol-5-yl)amino)benzoic acid] the IC50 [1] was ≤ 10 nM and the inhibition at 1 µM [2] was ≥ 50%.
In the case of `O=C(O)c1cc(C2CC2)ccc1Nc1ccc2c(c1)CC(=O)N2CC1CC1` [Example 108, 5-cyclopropyl-2-((1-(cyclopropylmethyl)-2-oxoindolin-5-yl)amino)benzoic acid], the IC50 [1] is reported as 10 to 100 nM and the inhibition at 1 µM [2] is reported as ≥ 50%.
With `O=C(O)c1cc(Cl)cnc1Nc1ccc2c(ccn2Cc2cccc(OC(F)(F)F)c2)c1` [Example 361, 5-chloro-2-((1-(3-(trifluoromethoxy)benzyl)-1H-indol-5-yl)amino)nicotinic acid] the IC50 [1] was 10 to 100 nM and the inhibition at 1 µM [2] was ≥ 50%.
`O=C(O)c1cc(Cl)ccc1Nc1ccc2c(ccn2CC2CC2)c1` [Example 96, 5-chloro-2-((1-(cyclopropylmethyl)-1H-indol-5-yl)amino)benzoic acid] was tested, and the IC50 [1] was 10 to 100 nM and the inhibition at 1 µM [2] was ≥ 50%.
In the case of `O=C(O)c1cc(Cl)ccc1Nc1ccc2c(c1)CCN2c1ccccc1` [Example 283, 5-chloro-2-((1-phenylindolin-5-yl)amino)benzoic acid], the IC50 [1] is reported as ≤ 10 nM and the inhibition at 1 µM [2] is reported as ≥ 50%.
`O=C(O)c1cc(Cl)ccc1Nc1ccc2c(ccn2Cc2cccc(OCC(F)(F)F)c2)c1` [Example 84, 5-chloro-2-((1-(3-(2,2,2-trifluoroethoxyl)benzyl)-1H-indol-5-yl)amino)benzoic acid] was tested, and the IC50 [1] was ≤ 10 nM and the inhibition at 1 µM [2] was ≥ 50%.
`CCCCn1ccc2cc(Nc3ccc(Cl)cc3C(=O)O)ccc21` [Example 255, 2-((1-butyl-1H-indol-5-yl)amino)-5-chlorobenzoic acid] was tested, and the IC50 [1] was 10 to 100 nM and the inhibition at 1 µM [2] was ≥ 50%.
In the case of `O=C(O)c1cc(Cl)ccc1Nc1ccc2c(ccn2-c2ccccc2F)c1` [Example 335, 5-chloro-2-((1-(2-fluorophenyl)-1H-indol-5-yl)amino)benzoic acid], the IC50 [1] is reported as ≤ 10 nM and the inhibition at 1 µM [2] is reported as ≥ 50%.
`Cn1c(=O)n(-c2ccccc2)c2ccc(Nc3ccc(C4CC4)cc3C(=O)O)cc21` [Example 78, 5-cyclopropyl-2-((3-methyl-2-oxo-1-phenyl-2,3-dihydro-1H-benzo[d]imidazol-5-yl)amino)benzoic acid] was tested, and the IC50 [1] was 10 to 100 nM and the inhibition at 1 µM [2] was ≥ 50%.
With `O=C(O)c1cc(Cl)ccc1Nc1ccc2c(ccn2Cc2cccc(N3CCOCC3)c2)c1` [Example 14, 5-chloro-2-((1-(3-morpholinobenzyl)-1H-indol-5-yl)amino)benzoic acid] the IC50 [1] was ≤ 10 nM and the inhibition at 1 µM [2] was ≥ 50%.
`O=C(O)c1cc(C2CC2)ccc1Nc1ccc2c(c1)n(CC1CC1)c(=O)n2-c1ccccc1` [Example 82, 5-cyclopropyl-2-((3-(cyclopropylmethyl)-2-oxo-1-phenyl-2,3-dihydro-1H-benzo[d]imidazol-5-yl)amino)benzoic acid] was tested, and the IC50 [1] was 10 to 100 nM and the inhibition at 1 µM [2] was ≥ 50%.
In the case of `O=C(O)c1cc(C2CC2)ccc1Nc1ccc2c(ccn2-c2cccnc2)c1` [Example 339, 5-cyclopropyl-2-((1-(pyridin-3-yl)-1H-indol-5-yl)amino)benzoic acid], the IC50 [1] is reported as ≤ 10 nM and the inhibition at 1 µM [2] is reported as ≥ 50%.

Source: US9624215B2, “Amine derivative or salt thereof” (TOYAMA CHEMICAL CO., LTD., priority 2012, dated 2017)
